Results taken from patent US12570647B2 (Saint Louis University, priority 2021, dated 2026).
In brackets after ≈: the same amount, converted by molar mass.

Columns and labels:
S. aureus AR222 = test system: S. aureus AR222; set-up: key to Antibiotic susceptibility (R/S/I): R: resistance; S: sensitive; I: intermediate; settings: S. aureus AR222 (CDC strain), cited from earlier work; for Antibiotic susceptibility (R/S/I): Table 2
S. aureus AR215 = test system: S. aureus AR215; set-up: key to Antibiotic susceptibility (R/S/I): R: resistance; S: sensitive; I: intermediate; settings: S. aureus AR215 (CDC strain), cited from earlier work; for Antibiotic susceptibility (R/S/I): Table 2
S. aureus ATCC 25923 = test system: S. aureus ATCC 25923; set-up: key: R: resistance; S: sensitive; I: intermediate; settings: Table 2; cited from earlier work
S. aureus AR217 = test system: S. aureus AR217; set-up: key to Antibiotic susceptibility (R/S/I): R: resistance; S: sensitive; I: intermediate; settings: S. aureus AR217 (CDC strain), cited from earlier work; for Antibiotic susceptibility (R/S/I): Table 2
S. aureus ATCC25923 = test: S. aureus MIC80 determination, broth microdilution (CLSI) in CAMHB; type: cell-based; settings: Staphylococcus aureus, ATCC25923; Table 1; S. aureus ATCC 25923; growth inhibition ≥80% vs vehicle, 16-24 h; read-out: ATCC 25923 MIC80
Procedure: S. Aureus MIC80 determinations in S. aureus ATCC25923 or in multidrug-resistant strains AR215, AR217 and AR255. MIC80's were determined by the broth microdilution method recommended by the Clinical and Laboratory Standards Institute (CLSI) in Cation-adjusted Mueller-Hinton broth (CAMHB). (Cao et al., 2018). In the preliminary screening, three compound concentrations were used: 5.8, 20.4, and 71.4 μM; for quantitative MIC80 measurements, a 1.5-fold dilution series of the compounds was prepared in CAMHB. Overnight bacterial culture was added to the diluted compounds in a 96-well plate after adjusting the bacterial concentration to achieve a 5×10^5 CFU/mL final concentration. After 16-24 h incubation at 35±2° C., the plates were read at 600 nm in a microplate reader. The MIC80 was defined as the concentration of an antibacterial agent that inhibited bacteria growth ≥80% compared to vehicle-treated control cultures. All values were determined at least twice independently, and the average number is reported.

| MIC80 (S. aureus ATCC25923) | Compound | other results |
| --- | --- | --- |
|  | CN[C@H](CC(C)C)C(=O)N[C@H]1C(=O)N[C@@H](CC(N)=O)C(=O)N[C@H]2C(=O)N[C@H]3C(=O)N[C@H](C(=O)N[C@H](C(=O)O)c4cc(O)cc(O)c4-c4cc3ccc4O)[C@H](O)c3ccc(c(Cl)c3)Oc3cc2cc(c3O[C@@H]2O[C@H](CO)[C@@H](O)[C@H](O)[C@H]2O[C@H]2C[C@](C)(N)[C@H](O)[C@H](C)O2)Oc2ccc(cc2Cl)[C@H]1O [VAN, Vancomycin] | Antibiotic susceptibility (R/S/I) (S. aureus AR222): I; Antibiotic susceptibility (R/S/I) (S. aureus AR215): I; Antibiotic susceptibility (R/S/I) (S. aureus ATCC 25923): S; Antibiotic susceptibility (R/S/I) (S. aureus AR217): I |
|  | CO[C@H]1/C=C/O[C@@]2(C)Oc3c(C)c(O)c4c(O)c(c(/C=N/N5CCN(C)CC5)c(O)c4c3C2=O)NC(=O)/C(C)=C\C=C\[C@H](C)[C@H](O)[C@@H](C)[C@@H](O)[C@@H](C)[C@H](OC(C)=O)[C@@H]1C [RIF, Rifampin] | Antibiotic susceptibility (R/S/I) (S. aureus AR222): I; Antibiotic susceptibility (R/S/I) (S. aureus AR215): S; Antibiotic susceptibility (R/S/I) (S. aureus ATCC 25923): S; Antibiotic susceptibility (R/S/I) (S. aureus AR217): S |
|  | Penicillin | Resistance of the strain to the antibiotic (S. aureus AR222): resistant; Antibiotic susceptibility (R/S/I) (S. aureus AR222): R; Resistance of the strain to the antibiotic (S. aureus AR215): resistant; Antibiotic susceptibility (R/S/I) (S. aureus AR215): R; Resistance of the strain to the antibiotic (S. aureus AR217): resistant; Antibiotic susceptibility (R/S/I) (S. aureus AR217): R |
| > 100 µM | Cc1cc(Cl)cc2sc(N(CCCn3ccnc3)C(=O)c3ccc(C(=O)O)cc3)nc12 [Example 12, 4-((3-(1H-imidazol-1-yl)propyl)(6-chloro-4-methylbenzo[d]thiazol-2-yl)carbamoyl)benzoic acid] |  |
|  | CCCCCCCCCC(=O)N[C@@H](Cc1c[nH]c2ccccc12)C(=O)N[C@H](CC(N)=O)C(=O)N[C@@H](CC(=O)O)C(=O)N[C@@H]1C(=O)NCC(=O)N[C@@H](CCCN)C(=O)N[C@@H](CC(=O)O)C(=O)N[C@H](C)C(=O)N[C@@H](CC(=O)O)C(=O)NCC(=O)N[C@H](CO)C(=O)N[C@@H]([C@H](C)CC(=O)O)C(=O)N[C@@H](CC(=O)c2ccccc2N)C(=O)O[C@@H]1C [DAP, Daptomycin] | Antibiotic susceptibility (R/S/I) (S. aureus AR222): S; Antibiotic susceptibility (R/S/I) (S. aureus ATCC 25923): S |
| > 100 µM | Cc1cc(Cl)cc2sc(N3CCC(CNC(=O)OC(C)(C)C)CC3)nc12 [Example 57] |  |
| 19.8 µM (≈ 6.08 µg/mL) | Cc1cc(Cl)cc2sc(NCCCn3ccnc3)nc12 [Example 1, N-(3-(1H-imidazol-1-yl)propyl)-6-chloro-4-methylbenzo[d]thiazol-2-amine] |  |
| 3.9 µM (≈ 1.57 µg/mL) | Cc1cc(Cl)cc2sc(N(CCCn3ccnc3)C(=O)C3CCCC3)nc12 [Example 8, N-(3-(1H-imidazol-1-yl)propyl)-N-(6-chloro-4-methylbenzo[d]thiazol-2-yl)cyclopentanecarboxamide] |  |
| 3.9 µM (≈ 1.67 µg/mL) | Cc1cc(C(=O)N(CCCn2ccnc2)c2nc3c(C)cc(Cl)cc3s2)oc1C [Example 16, N-(3-(1H-imidazol-1-yl)propyl)-N-(6-chloro-4-methylbenzo[d]thiazol-2-yl)-4,5-dimethylfuran-2-carboxamide] |  |
| 2.6 µM (≈ 1.12 µg/mL) | Cc1ccc(C(=O)N(CCCn2ccnc2)c2nc3c(C)cc(Cl)cc3s2)s1 [Example 9, N-(3-(1H-imidazol-1-yl)propyl)-N-(6-chloro-4-methylbenzo[d]thiazol-2-yl)-5-methylthiophene-2-carboxamide] |  |
| 8.8 µM (≈ 3.85 µg/mL) | Cc1cc(Cl)cc2sc(N(CCCn3ccnc3)S(=O)(=O)c3ccco3)nc12 [Example 25, N-(3-(1H-imidazol-1-yl)propyl)-N-(6-chloro-4-methylbenzo[d]thiazol-2-yl)furan-2-sulfonamide] |  |
|  | CO[C@@]1(NC(=O)Cc2cccs2)C(=O)N2C(C(=O)O)=C(COC(N)=O)CS[C@@H]21 [FOX, Cefoxitin] | Antibiotic susceptibility (R/S/I) (S. aureus AR222): S; Resistance of the strain to the antibiotic (S. aureus AR215): resistant; Antibiotic susceptibility (R/S/I) (S. aureus AR215): R; Resistance of the strain to the antibiotic (S. aureus AR217): resistant; Antibiotic susceptibility (R/S/I) (S. aureus AR217): R |
| 6.6 µM (≈ 2.38 µg/mL) | Cc1cc(Cl)cc2sc(N(CCCn3ccnc3)CC3CC3)nc12 [Example 27, N-(3-(1H-imidazol-1-yl)propyl)-6-chloro-N-(cyclopropylmethyl)-4-methylbenzo[d]thiazol-2-amine] |  |
| 100 µM (≈ 37.8 µg/mL) | Cc1cc(Cl)cc2sc(N(CCC3CCNCC3)C(=O)C3CC3)nc12 [Example 43, N-(6-chloro-4-methyl-1,3-benzothiazol-2-yl)-N-[2-(piperidin-4-yl)ethyl]cyclopropanecarboxamide] |  |
| > 100 µM | Cc1cc(Cl)cc2sc(N(CCCn3cccc3)C(=O)c3ccco3)nc12 [Example 44, N-(6-chloro-4-methyl-1,3-benzothiazol-2-yl)-N-[3-(1H-pyrrol-1-yl)propyl]furan-2-carboxamide] |  |
| > 100 µM | Cc1cc(Cl)cc2sc(N(CC3CCN(C(=O)OC(C)(C)C)CC3)C(=O)C3CCC3)nc12 [Example 56] |  |
| 44.4 µM (≈ 15.5 µg/mL) | Cc1cc(Cl)cc2sc(N(CC3CCNC3)C(=O)C3CC3)nc12 (centres unmarked) [Example 41, N-(6-chloro-4-methylbenzo[d]thiazol-2-yl)-N-(pyrrolidin-3-ylmethyl)cyclopropanecarboxamide] |  |

| MIC80 (S. aureus ATCC25923) | Compound | other results |
| --- | --- | --- |
| > 100 µM | NCc1cccc2sc(N(CCCn3ccnc3)C(=O)C3CCC3)nc12 [Example 47, N-[4-(aminomethyl)-1,3-benzothiazol-2-yl]-N-[3-(1H-imidazol-1-yl)propyl]cyclobutanecarboxamide] |  |
| 13.2 µM | Cc1cc(Cl)cc2sc(N(CCCn3cc[n+](C)c3)C(=O)c3ccco3)nc12 [Example 29, 1-(3-(N-(6-chloro-4-methylbenzo[d]thiazol-2-yl)furan-2-carboxamido)propyl)-3-methyl-1H-imidazol-3-ium] |  |
| > 100 µM | Cc1cc(Cl)cc2sc(N(CCCn3ccnc3)C(=O)C(C)N)nc12 (centres unmarked) [Example 60] |  |
| 14.8 µM (≈ 8.2 µg/mL) | Cc1cc(Cl)cc2sc(N(CCCn3ccnc3)C(=O)[C@H](Cc3ccccc3)NC(=O)OC(C)(C)C)nc12 [Example 21, (S)-tert-butyl (1-((3-(1H-imidazol-1-yl)propyl)(6-chloro-4-methylbenzo[d]thiazol-2-yl)amino)-1-oxo-3-phenylpropan-2-yl)carbamate] |  |
| 2.6 µM (≈ 1.01 µg/mL) | Cc1cc(Cl)cc2sc(N(CCCn3ccnc3)C(=O)C3CCC3)nc12 [Example 17, N-(3-(1H-imidazol-1-yl)propyl)-N-(6-chloro-4-methylbenzo[d]thiazol-2-yl)cyclobutanecarboxamide] |  |
| > 100 µM | O=C(C1CC1)N(CCCn1ccnc1)c1nc2ccc(Cl)nc2s1 [Example 53, N-{5-chloro-[1,3]thiazolo[5,4-b]pyridin-2-yl}-N-[3-(1H-imidazol-1-yl)propyl]cyclopropanecarboxamide] |  |
| 2.6 µM (≈ 1.11 µg/mL) | Cc1cc(Cl)cc2sc(N(CCCn3ccnc3)C(=O)/C=C/c3ccco3)nc12 [Example 6, (E)-N-(3-(1H-imidazol-1-yl)propyl)-N-(6-chloro-4-methylbenzo[d]thiazol-2-yl)-3-(furan-2-yl)acrylamide] |  |
| > 100 µM | NCc1ccc2nc(N(CCCn3ccnc3)C(=O)C3CC3)sc2c1 [Example 51] |  |
| > 100 µM | Cc1cc(Cl)cc2sc(N3CCN(C(=O)OC(C)(C)C)CC3)nc12 [Example 59] |  |
| > 100 µM | CC(=O)N1CCN(c2nc3c(C)cc(Cl)cc3s2)CC1 [Example 31, 1-(4-(6-chloro-4-methylbenzo[d]thiazol-2-yl)piperazin-1-yl)ethan-1-one] |  |
| 1.7 µM (≈ 0.637 µg/mL) | Cc1cc(Cl)cc2sc(N(CCCn3ccnc3)C(=O)C3CC3)nc12 [Example 10, N-(3-(1H-imidazol-1-yl)propyl)-N-(6-chloro-4-methylbenzo[d]thiazol-2-yl)cyclopropanecarboxamide] |  |
| 2.6 µM (≈ 1.04 µg/mL) | Cc1cc(Cl)cc2sc(N(CCCn3ccnc3)C(=O)c3ccoc3)nc12 [Example 7, N-(3-(1H-imidazol-1-yl)propyl)-N-(6-chloro-4-methylbenzo[d]thiazol-2-yl)furan-3-carboxamide] |  |
| 29.6 µM (≈ 12 µg/mL) | Cc1cc(Cl)cc2sc(N(CCCn3ccnc3)C(=O)C3CCCO3)nc12 (centres unmarked) [Example 14, N-(3-(1H-imidazol-1-yl)propyl)-N-(6-chloro-4-methylbenzo[d]thiazol-2-yl)tetrahydrofuran-2-carboxamide] |  |
| 3.9 µM (≈ 1.74 µg/mL) | Cc1cc(Cl)cc2sc(N(CCCn3ccnc3)S(=O)(=O)c3ccccc3)nc12 [Example 23, N-(3-(1H-imidazol-1-yl)propyl)-N-(6-chloro-4-methylbenzo[d]thiazol-2-yl)benzenesulfonamide] |  |
| 13.2 µM (≈ 5.98 µg/mL) | Cc1cc(Cl)cc2sc(N(CCCn3ccnc3)S(=O)(=O)C3CCCCC3)nc12 [Example 24, N-(3-(1H-imidazol-1-yl)propyl)-N-(6-chloro-4-methylbenzo[d]thiazol-2-yl)cyclohexanesulfonamide] |  |
| 44.4 µM (≈ 13.1 µg/mL) | Cc1cc(Cl)cc2sc(N3CCC(CN)CC3)nc12 [Example 34] |  |

| Compound | MIC80 (S. aureus ATCC25923) | other results |
| --- | --- | --- |
| Cc1cc(Cl)cc2sc(N(CC3CCNCC3)C(=O)C3CC3)nc12 [Example 39] | 19.8 µM (≈ 7.21 µg/mL) |  |
